Measured values taken from ChEMBL document CHEMBL1141174, “Quantitative structure-activity relationship analysis of inhibitors of the nicotine metabolizing CYP2A6 enzyme” (J Med Chem, 2005).

Columns and labels:
Cytochrome P450 2A6 = target: T1, Cytochrome P450 2A6 (Homo sapiens, UniProt P11509); experiment: Inhibitory concentration against human cytochrome P450 2A6
T1 sequence (P11509 whole entry): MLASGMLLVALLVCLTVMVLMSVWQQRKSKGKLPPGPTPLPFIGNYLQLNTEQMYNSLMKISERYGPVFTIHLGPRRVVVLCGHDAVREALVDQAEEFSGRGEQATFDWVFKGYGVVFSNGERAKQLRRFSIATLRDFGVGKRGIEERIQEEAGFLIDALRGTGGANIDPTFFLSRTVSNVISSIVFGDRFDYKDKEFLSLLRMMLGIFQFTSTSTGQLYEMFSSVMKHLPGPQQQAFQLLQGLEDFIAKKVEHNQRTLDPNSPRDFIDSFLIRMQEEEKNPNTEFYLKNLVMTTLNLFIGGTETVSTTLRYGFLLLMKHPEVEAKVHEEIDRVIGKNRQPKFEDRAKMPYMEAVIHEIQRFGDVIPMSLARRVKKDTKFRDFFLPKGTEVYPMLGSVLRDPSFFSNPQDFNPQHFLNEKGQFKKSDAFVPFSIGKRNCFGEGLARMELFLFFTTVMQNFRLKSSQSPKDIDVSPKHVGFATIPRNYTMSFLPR

Cytochrome P450 2A5 = target: T2, Cytochrome P450 2A5 (Mus musculus, UniProt P20852); experiment: Inhibitory concentration against mouse cytochrome P450 2A5
T2 sequence (P20852 whole entry): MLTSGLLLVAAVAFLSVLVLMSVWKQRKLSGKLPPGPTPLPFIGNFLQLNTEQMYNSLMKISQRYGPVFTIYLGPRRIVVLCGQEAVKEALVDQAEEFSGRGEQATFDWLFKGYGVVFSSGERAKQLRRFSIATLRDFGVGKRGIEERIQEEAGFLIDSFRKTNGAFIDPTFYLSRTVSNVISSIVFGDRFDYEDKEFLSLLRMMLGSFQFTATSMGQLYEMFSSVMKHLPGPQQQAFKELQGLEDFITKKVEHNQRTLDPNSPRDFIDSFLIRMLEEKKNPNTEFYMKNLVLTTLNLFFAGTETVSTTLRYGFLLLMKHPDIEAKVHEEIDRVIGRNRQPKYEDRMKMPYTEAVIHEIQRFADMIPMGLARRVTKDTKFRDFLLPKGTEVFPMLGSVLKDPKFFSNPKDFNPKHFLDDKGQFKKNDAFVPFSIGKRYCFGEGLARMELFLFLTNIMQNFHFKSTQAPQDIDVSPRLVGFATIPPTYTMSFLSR

CYP2A6 / CYP2A5 = experiment: Ratio of IC50 for human CYP2A6 to that of mouse CYP2A5 was determined
CYP2A6 = target: T3, CYP2A6 (Homo sapiens, UniProt P11509); experiment: Michaelis-Menten constant of compound against human cytochrome P450 2A6 enzyme; assay type: ADME
T3 sequence (P11509 whole entry): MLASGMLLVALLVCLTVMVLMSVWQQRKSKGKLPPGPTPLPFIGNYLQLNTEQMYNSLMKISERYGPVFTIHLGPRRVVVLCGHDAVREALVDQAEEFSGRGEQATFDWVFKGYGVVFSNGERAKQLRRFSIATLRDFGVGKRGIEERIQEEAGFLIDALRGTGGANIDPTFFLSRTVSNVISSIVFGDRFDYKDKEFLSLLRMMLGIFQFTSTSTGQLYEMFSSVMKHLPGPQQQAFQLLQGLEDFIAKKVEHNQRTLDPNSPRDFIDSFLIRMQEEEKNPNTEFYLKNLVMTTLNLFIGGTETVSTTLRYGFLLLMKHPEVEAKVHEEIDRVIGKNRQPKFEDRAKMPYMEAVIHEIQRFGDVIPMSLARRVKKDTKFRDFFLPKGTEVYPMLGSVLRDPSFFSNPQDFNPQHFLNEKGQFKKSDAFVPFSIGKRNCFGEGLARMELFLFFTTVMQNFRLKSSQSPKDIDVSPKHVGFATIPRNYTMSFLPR

[1] = substrate: O=c1ccc2ccccc2o1; experiment: Michaelis-Menten constant of compound against mouse cytochrome P450 2A5 enzyme; assay type: ADME

Row | Molecule | IC50 (Cytochrome P450 2A6) | IC50 (Cytochrome P450 2A5) | selectivity ratio (CYP2A6 / CYP2A5) | Km (CYP2A6) | Km [1]
1 | O=Cc1ccccc1 [BENZALDEHYDE] | 3.92 µM | 3.28 µM | – | – | –
2 | O=C1CCCc2ccccc21 | 52 µM | 14 µM | 3.6 | – | –
3 | Clc1ccc2ccc(Cl)cc2c1 | > 100 µM | 4.4 µM | – | – | –
4 | Clc1ccc2ccccc2c1Cl | 15 µM | 5.5 µM | – | – | –
5 | c1ccc2c(c1)ccc1ccccc12 [PHENANTHRENE] | 97 µM | 26 µM | 4 | – | –
6 | O=c1ccc2ccccc2o1 [COUMARIN] | – | – | – | 0.74 µM | –
7 | Clc1cc2cc(Cl)c(Cl)c(Cl)c2cc1Cl | > 600 µM | 300 µM | – | – | –
8 | c1ccc2ccccc2c1 [NAPHTHALENE] | 25 µM | 74 µM | 0.34 | – | –
9 | Clc1cc2ccccc2cc1Cl | > 60 µM | 60 µM | – | – | –
10 | Clc1ccc(-c2ccccc2)cc1 | 150 µM | 18 µM | 8.2 | – | –
11 | Cc1ccc2cccc(C)c2c1 | 31 µM | 14 µM | 1.2 | – | –
12 | CN1C(=O)CCC1c1cccnc1 (single isomer, unassigned) [COTININE] | – | 1500 µM | 42.8 | – | –
13 | Oc1ccc2ccccc2c1 [BETANAPHTHOL] | 140 µM | 78 µM | 1.8 | – | –
14 | Cc1cc(C)c2ccccc2n1 | 830 µM | 110 µM | 7.7 | – | –
15 | Clc1cccc2c(Cl)cccc12 | 2.5 µM | 2.4 µM | 1.04 | – | –
16 | Cc1cccc2c(C)cccc12 | 31 µM | 34 µM | 0.91 | – | –
17 | Brc1ccc(Br)cc1 | 59 µM | 2.2 µM | 48.5 | – | –
18 | NCCc1ccccc1 [PHENETHYLAMINE] | 38.9 µM | 1000 µM | – | – | –
19 | CCc1ccc2ccccc2c1 | 12 µM | 4.8 µM | 2.4 | – | –
20 | Clc1ccc2ccccc2c1 | 5.4 µM | 12 µM | 0.45 | – | –
21 | Cc1ccc(C=O)cc1 | – | 20.9 µM | – | – | –
22 | Cc1ccc2ccccc2c1 | 2.4 µM | 7 µM | 0.34 | – | –
23 | Cc1cccc2ccccc12 | 34 µM | 24 µM | 1.4 | – | –

Row | Molecule | IC50 (Cytochrome P450 2A6) | IC50 (Cytochrome P450 2A5) | selectivity ratio (CYP2A6 / CYP2A5) | Km (CYP2A6) | Km [1]
24 | Cc1ccc2c(C)cccc2c1 | 130 µM | 32 µM | 4 | – | –
25 | O=C1CCc2ccccc2C1 | 21 µM | 9.7 µM | 2.2 | – | –
26 | Clc1ccc(Cl)cc1 [1,4-DICHLOROBENZENE] | 17 µM | 1 µM | 30.4 | – | –
27 | CC(N)Cc1ccccc1 (stereo not drawn) [AMPHETAMINE] | 3.5 µM | 2.85 µM | – | – | –
28 | Cc1cc2ccccc2cn1 | 25 µM | 4.8 µM | 5.1 | – | –
29 | Cc1ccc2ccccc2n1 [QUINALDINE] | 190 µM | 80 µM | 2.4 | – | –
30 | Brc1ccc2ccccc2c1 | 0.55 µM | 2.5 µM | 0.22 | – | –
31 | Oc1cccc2ccccc12 [1-NAPHTHOL] | 130 µM | 140 µM | 0.96 | – | –
32 | COc1cc2c(cc1OC)CC(=O)CC2 | 2000 µM | 210 µM | 9.2 | – | –
33 | Clc1cccc2ccccc12 | 18 µM | 14 µM | 1.3 | – | –
34 | Cc1ccc(CCN)cc1 | 5.3 µM | 4 µM | – | – | –
35 | Cc1nccc2ccccc12 | 60 µM | 170 µM | 0.36 | – | –
36 | Cc1ccc2cc(C)ccc2c1 | 10 µM | 1.7 µM | 5.9 | – | –
37 | Clc1ccccc1-c1ccccc1 | 36 µM | 13 µM | 2.8 | – | –
38 | Fc1ccc2ccccc2c1 | 0.67 µM | 7.3 µM | 0.09 | – | –
39 | CN1CCC[C@@H]1c1cccnc1 [R-NICOTINE] | 580 µM | 160 µM | 3.8 | – | –
40 | Cc1ccc2ccc(C)cc2c1 | 1.7 µM | 1.4 µM | – | – | –
41 | CC(=O)c1ccc2ccc(C)cc2c1 | 6.7 µM | 4.1 µM | 1.6 | – | –
42 | Cc1cnc2ccccc2c1 | 200 µM | 100 µM | 1.9 | – | –
43 | Cc1ccc2ccc(C)nc2c1 | 400 µM | 180 µM | 2.2 | – | –
44 | COc1ccc(C=O)cc1 [ANISALDEHYDE] | 7.1 µM | 5.9 µM | – | – | –
45 | Cytochrome P450 2A5 (Mus musculus) (protein) MLTSGLLLVAAVAFLSVLVLMSVWKQRKLSGKLPPGPTPLPFIGNFLQLNTEQMYNSLMKISQRYGPVFTIYLGPRRIVVLCGQEAVKEALVDQAEEFSGRGEQATFDWLFKGYGVVFSSGERAKQLRRFSIATLRDFGVGKRGIEERIQEEAGFLIDSFRKTNGAFIDPTFYLSRTVSNVISSIVFGDRFDYEDKEFLSLLRMMLGSFQFTATSMGQLYEMFSSVMKHLPGPQQQAFKELQGLEDFITKKVEHNQRTLDPNSPRDFIDSFLIRMLEEKKNPNTEFYMKNLVLTTLNLFFAGTETVSTTLRYGFLLLMKHPDIEAKVHEEIDRVIGRNRQPKYEDRMKMPYTEAVIHEIQRFADMIPMGLARRVTKDTKFRDFLLPKGTEVFPMLGSVLKDPKFFSNPKDFNPKHFLDDKGQFKKNDAFVPFSIGKRYCFGEGLARMELFLFLTNIMQNFHFKSTQAPQDIDVSPRLVGFATIPPTYTMSFLSR | – | – | – | – | 0.64 µM
